Results on 2 compounds are retold here after patent US20200377518A1, “METHOD OF PREVENTING AND TREATING THROMBOSIS” (Rigel Pharmaceuticals, Inc., priority 2019, published 2020).

What is called EC50 is the concentration that produces a half-maximal response.

The structures appear in SMILES notation.

Data set [1] has as its target IgE- and IgG-mediated activation of Fc receptor signaling. Particulars: read-out: EC50 for degranulation; cited from earlier work.
Data set [2] has as its system monocytes/macrophages, neutrophils, B lymphocytes. Conditions: cited from earlier work.
The test system of a further data set is ITP patients. The data set is described as follows: Fostamatinib in immune thrombocytic purpura (ITP) patients. Format: in vivo, human.
Data set [3] concerns Transgenic HIT mice homozygous for both FcγRIIA and human PF4 and null for mouse PF4. The data set is described as follows: Inhibition of thrombosis in vivo, transgenic HIT mice, lung thrombi. Conditions: chow containing 0.5, 1 and 2 g/kg of R788 for 3 days, KKO or HIT-IgG, then heparin, lungs 3 hours later. An excerpt:
Transgenic HIT mice homozygous for both FcγRIIA and human PF4 and null for mouse PF4 are used to evaluate the effects of fostamatinib on immune complexes (IC)-induced thrombocytopenia and thrombosis. 6-12 weeks old transgenic male mice are fed the control chow or chow containing 0.5, 1 and 2 g/kg of R788 for 3 days prior to the injection of either the monoclonal HIT-like antibody KKO or IgG from HIT patients (HIT-IgG). For HIT-induced thrombocytopenia experiments, all mice received heparin subcutaneously at 1600 U/kg body weight once daily for 6 days, starting with first day after antibody injection. Retro-orbital blood collection is performed daily after anesthetizing the animals starting a day before HIT antibody injection to monitor thrombocytopenia by counting platelets using standard equipment.
To assess fostamatinib effect on thrombosis, the mice are fed with drug or vehicle chow followed by injection of the HIT antibodies as described. Next day, each animal is retro-orbitally infused with 1×10^8 Alexa750-labeled platelets from untreated syngeneic donor mice prior to heparin injection. Animals are terminated 3 hours later, their lungs are excised, perfused with PBS, fixed with 7% paraformaldehyde and imaged using Odyssey Imaging System (LI-COR Bio). Thrombi are counted and scored by intensity using NIS Elements software (Nikon). […]

A further data set concerns C57Bl/6 WT male mice. Briefly: Deep vein thrombosis, inferior vena cava (IVC) stenosis model. The format is in vivo. Particulars: fostamatinib chow for 3 days; 48 hours after the surgery. As to the method: Mice are fed fostamatinib or vehicle chow for 3 days, anaesthetized using isoflurane and then subjected to laparotomy. After tying off the side branches of the IVC, the IVC is stenosed with a ligature and a 30-gauge spacer to maintain a small degree of blood flow. Mice are allowed to recover, then culled 48 hours after the surgery and the IVC are examined for the presence and size of thrombus.
For deep vein thrombosis assay methods generally, see, Low dose Btk inhibitors selectively block platelet activation by CLEC-2. Phillip L. R. Nicolson et al. Haematologica 2020 Jan. 16. pii: haematol. 2019.218545. doi: 10.3324/haematol.2019.218545

In another data set the test system is C57Bl6 mice. The data set is described as follows: Arterial thrombosis, ferric chloride injury model of carotid artery. The format is in vivo. Conditions: fostamatinib chow for 3 days; FeCl3 on carotid artery. As to the method:
To investigate effect on arterial thrombosis, a ferric chloride injury model in mice is employed. 8-week-old C57Bl6 mice are fed fostamatinib or vehicle chow for 3 days, anaesthetized using mixture of ketamine (100 mg/kg)/xylazine (10 mg/kg) via intraperitoneal injection and have their right jugular vein exposed. Next, rhodamine 6G solution is injected into the right jugular vein to label platelets, exposed carotid artery (CA) staged at the microscope and the thrombosis is induced by applying a piece of filter paper (1×2 mm) saturated with FeCl3 solution directly on the CA. Thrombus formation is identified by accumulation of the fluorescent platelets, which is observed in real-time recording video images under the microscope.
For arterial thrombosis assay methods generally, see, Wei Li, Thomas M. McIntyre, Roy L. Silverstein. Ferric chloride-induced murine carotid arterial injury: A model of redox pathology. Redox Biology 1 (2013) 50-55, and Wei Li, Marvin Nieman, Anirban Sen Gupta. Ferric Chloride-induced Murine Thrombosis Models. J. Vis. Exp. (115), e54479, doi:10.3791/54479 (2016).

With `COc1cc(Nc2ncc(F)c(Nc3ccc4c(n3)NC(=O)C(C)(C)O4)n2)cc(OC)c1OC` [R406, 6-((5-fluoro-2-((3,4,5-trimethoxyphenyl)amino)pyrimidin-4-yl)amino)-2,2-dimethyl-2H-pyrido[3,2-b][1,4]oxazin-3(4H)-one], the EC50 in data set [1] was 56 to 64 nM. Moreover, in data set [2], the “BCR-mediated activation of B lymphocytes” value is on record as “blocked”; the “Syk-dependent FcR-mediated activation of monocytes/macrophages and neutrophils” value is listed as “blocked”.

Turning to `COc1cc(Nc2ncc(F)c(Nc3ccc4c(n3)N(COP(=O)(O)O)C(=O)C(C)(C)O4)n2)cc(OC)c1OC` [fostamatinib, [6-({5-Fluoro-2-[(3,4,5-trimethoxyphenyl)amino]-4-pyrimidinyl}amino)-2,2-dimethyl-3-oxo-2,3-dihydro-4H-pyrido[3,2-b][1,4]oxazin-4-yl]methyl dihydrogen phosphate], in the data set with ITP patients, the platelet levels result is given as “increases platelet levels”. The risk of thrombosis result in the data set on ITP patients is given as “does not appear to increase risk of thrombosis”. The “heparin induced thrombosis (lung thrombi counted and scored by intensity)” value in data set [3] is on record as “effectively reduces heparin induced thrombosis”; in data set [3] (listed as R788), “inhibits thrombosis in vivo”. Moreover, in the data set with C57Bl/6 WT male mice, the “presence and size of thrombus in IVC” value is “Relative lack of thrombus”. Moreover, the “arterial thrombus formation (accumulation of fluorescent platelets)” value in the data set on C57Bl6 mice is on record as “Lack of thrombus formation”.
